Measurements from patent US9023835B2, “Agent for ameliorating blood-brain barrier disorders” (Nagasaki University, priority 2009, dated 2015).

Key:
[1] = system: cerebral ischemia model mice (left middle cerebral artery infarction, reperfusion); assay: Tomato lectin staining of cerebral microvessels (blood-brain barrier disorder) in transient cerebral ischemia model mice; assay type: in vivo, C57BL/J6 mice; settings: for tomato lectin signal (microvessel length) on the ipsilateral-to-ischemia side, cerebrocortical sensation region: 1 h MCAO, i.v. 1 h after reperfusion, ProTα 100 μg/kg, ProTα30 1 mg/kg, ProTα9 0.3 mg/kg, C-term 0.3 mg/kg; for suppression of cerebrovascular collapse (tomato lectin staining, cortex and striatum): Example 4, same experiment as Example 1, ProTα vs ProTα30
Experimental: Five minutes later, the whole body was perfused and fixed with para-formaldehyde (PFA); the brain was extracted and further treated with 4% PFA at room temperature for 3 hours. Thereafter, the brain was placed in 25% sucrose solution and allowed to stand at 4° C. overnight. The brain was freeze-embedded in the OCT compound, and a 50 μm-thick section was prepared on a plane including the cerebral cortex sensory area S1 (CS1) or S2 (CS2), bonded onto a silane-coated glass slide, and dried on a heater overnight. Thereafter, using Alexa Fluor488-labeled streptavidin (diluted 300 fold with 2% BSA/PBST), fluorescent staining of tomato lectin was performed, after which the specimen was fixed with the fluorescent antifading agent Fluoromount (Japan Tanner Corporation), and allowed to stand in the dark overnight, then examined using the LSM5 PASCAL confocal laser microscope (Carl Zeiss). Fluorescent signals were cumulatively analyzed for total fluorescence in an approximately 30 μm range by the deconvolution method.
After 0.5 hours of middle cerebral artery obstruction (MCAO), reperfusion was performed; 1 hour later, tomato lectin staining in the CS2 region was observed as a signal of approximately 30 μm length on the contralateral-to-ischemia side (the scale bar is 100 μm, ×20 objective lens).
The same experiment as that shown in Example 1 was performed using ProTα and the active form ProTα30, and the effects thereof were comparatively analyzed.
Furthermore, fluorescent staining of tomato lectin was performed in the same manner as in Example 1, and microvessels were analyzed.
When reperfusion was performed after 1 hour of middle cerebral artery occlusion (MCAO), tomato lectin staining of the cerebrocortical sensation region was observed as a signal roughly 30 μm long on the contralateral-to-ischemia side (Contra).

[2] = system: photoinduced middle cerebral artery thrombosis (PIT) model mice; assay: Photoinduced middle cerebral artery thrombosis (PIT) model mice: infarction region volume, motor function; assay type: in vivo, C57BL/J6 mice; settings: for infarction (infarction region volume): after 24 hours of ischemia, solvent 48%; for motor function evaluation (inability to keep the posture and leaning or loss of spontaneous movement): 24 hours after ischemia, ProTα 100 μg/kg, ProTα30 1 mg/kg, ProTα9 0.1-1 mg/kg
Experimental: The left middle cerebral artery of a C57BL/J6 mouse was exposed under the dura, and the photosensitizing dye rose bengal was administered at 30 mg/kg into a caudal vein, after which green light with a given wavelength was irradiated to the middle cerebral artery for 10 minutes to produce a thrombus, and induce infarction with this thrombus. One hour after light irradiation, vehicle, ProTα (100 μg/kg), ProTα30 (1 mg/kg), or ProTα9 (0.1 mg/kg, 0.3 mg/kg and 1 mg/kg) was administered to a caudal vein. Next, after 24 hours of ischemia, infarction region volume was measured to evaluate the motor function in the same manner as the above.

[3] = system: transient cerebral ischemia model mice; assay: Transient cerebral ischemia model mice: infarction region volume (TTC), clinical score, survival rate; settings: for infarction region suppressing effect: 0.3 mg/kg i.v.; for infarction (infarction region volume, TTC): 24 h later, solvent alone 48%; for infarction (infarction region volume): solvent 48%
Experimental: Cerebral ischemia model mice generated by infarcting the left middle cerebral arteries of C57BL/J6 mice were maintained for 1 hour, and then reperfusion was performed. One hour after the reperfusion, a vehicle or ProTα30 (10 μg) was intracerebroventricularly administered (i.c.v.); the mice were examined over time every 24 hours to evaluate the motor function and survival rate. Also, clinical scores indicating movement disorders subsequent to left middle cerebral artery infarction were evaluated according to the rating system of 1: unable to completely extend the right forelimb, 2: rightward turning behavior, 3: unable to keep the posture and leans in the rightward direction, 4: loss of spontaneous movement, 5: death.
Meanwhile, 1 hour after ischemia and reperfusion, ProTα30 (0 μg (Veh), 0.1 μg or 10 μg) was intracerebroventricularly administered; the whole brain, extracted 24 hours thereafter was treated with 2% TTC (2,3,5-Triphenyltetrazolium chloride) staining solution in solution in PBS, and washed with PBS, after which five coronary sections of 1 mm thickness were taken with coverage of 2 mm anteriorly and 3 mm posteriorly from the bregma. […] The cerebral infarction region was evaluated according to the equation below. […] All volume on the ipsilateral side refers to the entire infarcted and non-infarcted regions on the ischemized side as divided on the median line, whereas all volume on the contralateral side refers to the entire region on the non-ischemized side.

[4] = system: permanent cerebral ischemia model mice; assay: Permanent cerebral ischemia model mice: infarction region volume, clinical score, survival rate; settings: no reperfusion, 24 h later, solvent 60%
Experimental: To permanent cerebral ischemia model mice generated by infarcting the middle cerebral arteries of C57BL/J6 mice, ProTα30 was intravenously administered (i.v.), without reperfusion, 2 hours and 4 hours after the start of ischemia. Next, 24 hours later, in the same manner as the above, infarction region volume was measured.
To permanent cerebral ischemia model mice generated by infarcting the middle cerebral arteries of C57BL/J6 mice, ProTα was administered into a caudal vein at 100 μg/kg, without reperfusion, 2, 7, or 12 hours after the start of ischemia. Next, in the same manner as the above, infarction region volume was measured. […] In the same mice, motor function was evaluated. Clinical scores indicating motor function disorders were evaluated in the same manner as Example 5.
Meanwhile, a vehicle or ProTα (100 μg) was administered into a caudal vein (i.v.) 2 and 4 hours after the start of ischemia, and the mice were examined over time every 24 hours to evaluate the motor function and survival rate.

[5] = system: permanent cerebral ischemia model rats; assay: Permanent cerebral ischemia model rats: infarction region volume, clinical score, survival rate
Experimental: To permanent cerebral ischemia model rats generated by infarcting the middle cerebral arteries of Sprague-Dawley rats, ProTα was administered into a caudal vein (i.v.), without reperfusion, 4 hours after the start of ischemia. Next, 24 hours later, infarction region volume was measured in the same manner as the above.
Furthermore, rats were examined over time every 24 hours to evaluate the motor function and survival rate.

[6] = 1 mg/kg caudal vein 1 hour after light irradiation

Substance | tomato lectin signal (microvessel length) on the ipsilateral-to-ischemia side, cerebrocortical sensation region [1] | infarction injury region, dose dependence ([2]; 0.1 mg/kg, 0.3 mg/kg and 1 mg/kg caudal vein) | infarction (infarction region volume) [2, 6] | motor function evaluation (inability to keep the posture and leaning or loss of spontaneous movement) [2] | infarction region suppressing effect [3] | suppression of cerebrovascular collapse (tomato lectin staining, cortex and striatum) [1] | infarction (infarction region volume) ([4]; 1 mg/kg i.v. once, 2 hours after infarction) | infarction (infarction region volume) ([4]; i.v. twice, at 2 hours and 4 hours) | infarction (infarction region volume, TTC) ([3]; 0.1 μg i.c.v. 1 h after reperfusion) | infarction (infarction region volume, TTC) ([3]; 10 μg i.c.v. 1 h after reperfusion) | motor function evaluation (clinical score) ([3]; 10 μg i.c.v., loss of spontaneous movement 3 days after ischemia and reperfusion) | clinical scores (hemiparalysis of degree 3) ([3]; 0.275 mg/kg i.v.) | infarction (infarction region volume) ([3]; 0.275 mg/kg i.v. once 1 hour after reperfusion) | clinical scores (hemiparalysis of degree 3) ([3]; 1 mg/kg i.v.) | infarction (infarction region volume) ([3]; 1 mg/kg i.v. once 1 hour after reperfusion) | survival rate ([3]; mouse, in vivo) | cerebrovascular destruction in the CS2 and striata on the ischemized side (tomato lectin staining) ([1]; 0.1 mg/kg i.v. 1 hour after reperfusion, examined 24 hours after reperfusion) | survival rate ([5]; 100 μg caudal vein, about 2 weeks later, non-dosing group 50% one day after ischemia) | infarction (infarction region volume) ([5]; 100 μg/kg i.v. 4 hours after infarction, 24 h later, solvent 40%) | infarction (infarction region volume) ([2]; 100 μg/kg caudal vein 1 hour after infarction)
C-term: C-end of ProTα, amino acid sequence TKKQKKTDEDD (SEQ ID NO: 50) [reference compound] | observed only as a fragment |  |  |  |  |  |  |  |  |  |  |  |  |  |  |  |  |  |  | 
ProTα9: polypeptide consisting of the 52nd amino acid to the 60th amino acid of rat prothymosin α, EVDEEEEEG (SEQ ID NO:6) (consensus amino acid sequence) | longer signals | decreased in a dose-dependent fashion | 30% | significantly ameliorated | cerebral infarction region suppressing effect |  |  |  |  |  |  |  |  |  |  |  |  |  |  | 
ProTα30: polypeptide consisting of the 49th amino acid to the 78th amino acid of rat prothymosin α (SEQ ID NO:4) (ADNEVDEEEEEGGEEEEEEEEGDGEEEDGD; consensus amino acid sequence) | longer signals |  | 30% | significantly ameliorated | cerebral infarction region suppressing effect | suppressing cerebrovascular collapse | 34% | 27% | 44% | 38% | significantly ameliorated | no effect was observed | 39% | ameliorated significantly | 13% | about 80% |  |  |  | 
prothymosin α (SDAAVDTSSEITTKDLKEKKEVVEEAEN; UniProt P26350 2-29, looked up) [ProTα, known protein] | longer signals |  |  | significantly ameliorated |  | suppressing cerebrovascular collapse |  |  |  |  |  |  |  |  |  |  | disappeared nearly completely | about 75% | 25% | 23%
